{
  "source": "PubChem BioAssay (NCI)",
  "assay_in_all_cases": "inhibition of tumour cell growth, NCI panel, 48 h",
  "key": {"[1]": {"test_system": "UACC-62 melanoma"}, "[2]": {"test_system": "SNB-19 CNS"}, "[3]": {"test_system": "OVCAR-8 ovarian"}, "[4]": {"test_system": "SK-MEL-28 melanoma"}, "[5]": {"test_system": "786-0 renal"}, "[6]": {"test_system": "MOLT-4 leukemia"}, "[7]": {"test_system": "HS 578T breast"}, "[8]": {"test_system": "SF-295 CNS"}, "[9]": {"test_system": "IGROV1 ovarian"}, "[10]": {"test_system": "K-562 leukemia"}, "[11]": {"test_system": "HCT-15 colon"}, "[12]": {"test_system": "A498 renal"}, "[13]": {"test_system": "SF-539 CNS"}, "[14]": {"test_system": "A549 NSCLC"}, "[15]": {"test_system": "RXF 393 renal"}, "[16]": {"test_system": "SK-MEL-2 melanoma"}, "[17]": {"test_system": "KM12 colon"}, "[18]": {"test_system": "OVCAR-3 ovarian"}, "[19]": {"test_system": "CCRF-CEM leukemia"}, "[20]": {"test_system": "HT29 colon"}, "[21]": {"test_system": "PC-3 prostate"}, "[22]": {"test_system": "SF-268 CNS"}, "[23]": {"test_system": "LOX IMVI melanoma"}, "[24]": {"test_system": "MCF7 breast"}, "[25]": {"test_system": "T-47D breast"}, "[26]": {"test_system": "RPMI-8226 leukemia"}, "[27]": {"test_system": "NCI-H522 lung"}, "[28]": {"test_system": "HL-60(TB) leukemia"}, "[29]": {"test_system": "SW-620 colon"}, "[30]": {"test_system": "HCT-116 colon"}, "[31]": {"test_system": "DU-145 prostate"}, "[32]": {"test_system": "ACHN renal"}, "[33]": {"test_system": "HOP-62 NSCLC"}, "[34]": {"test_system": "NCI/ADR-RES ovarian"}, "[35]": {"test_system": "MALME-3M melanoma"}, "[36]": {"test_system": "HOP-92 NSCLC"}, "[37]": {"test_system": "M14 melanoma"}, "[38]": {"test_system": "COLO 205 colon"}, "[39]": {"test_system": "OVCAR-5 ovarian"}, "[40]": {"test_system": "UACC-257 melanoma"}, "[41]": {"test_system": "U251 CNS"}, "[42]": {"test_system": "TK-10 renal"}, "[43]": {"test_system": "SN12C renal"}, "[44]": {"test_system": "NCI-H23 lung"}, "[45]": {"test_system": "CAKI-1 renal"}, "[46]": {"test_system": "MDA-MB-435"}, "[47]": {"test_system": "SK-OV-3 ovarian"}, "[48]": {"test_system": "MDA-MB-231 breast"}, "[49]": {"test_system": "EKVX NSCLC"}, "[50]": {"test_system": "BT-549 breast"}, "[51]": {"test_system": "UO-31 renal"}, "[52]": {"test_system": "OVCAR-4 ovarian"}, "[53]": {"test_system": "NCI-H460 lung"}, "[54]": {"test_system": "SK-MEL-5 melanoma"}, "[55]": {"test_system": "HCC-2998 colon"}},
  "note": "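All cell lines were grown in 96-well plates and treated with compound for 48 hours. Definition used: TGI = concentration required for complete inhibition of growth.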",
  "data": [
    {"smiles": "CC(C)c1ccc(NC(=S)NC(=O)c2ccccc2)cc1", "values": [
      {"measurement": "TGI", "setting": "[1]", "result": 30.7, "unit": "µM"},
      {"measurement": "TGI", "setting": "[2]", "result": "> 100", "unit": "µM"},
      {"measurement": "TGI", "setting": "[3]", "result": "> 100", "unit": "µM"},
      {"measurement": "TGI", "setting": "[4]", "result": 48.3, "unit": "µM"},
      {"measurement": "TGI", "setting": "[5]", "result": 46.4, "unit": "µM"},
      {"measurement": "TGI", "setting": "[6]", "result": 52.3, "unit": "µM"},
      {"measurement": "TGI", "setting": "[7]", "result": "> 100", "unit": "µM"},
      {"measurement": "TGI", "setting": "[8]", "result": 32.5, "unit": "µM"},
      {"measurement": "TGI", "setting": "[9]", "result": 68.4, "unit": "µM"},
      {"measurement": "TGI", "setting": "[10]", "result": "> 100", "unit": "µM"},
      {"measurement": "TGI", "setting": "[11]", "result": 40.7, "unit": "µM"},
      {"measurement": "TGI", "setting": "[12]", "result": 74.1, "unit": "µM"},
      {"measurement": "TGI", "setting": "[13]", "result": "> 100", "unit": "µM"},
      {"measurement": "TGI", "setting": "[14]", "result": "> 100", "unit": "µM"},
      {"measurement": "TGI", "setting": "[15]", "result": 44.9, "unit": "µM"},
      {"measurement": "TGI", "setting": "[16]", "result": 35.8, "unit": "µM"},
      {"measurement": "TGI", "setting": "[17]", "result": 46.5, "unit": "µM"},
      {"measurement": "TGI", "setting": "[18]", "result": 38.3, "unit": "µM"},
      {"measurement": "TGI", "setting": "[19]", "result": 49.6, "unit": "µM"},
      {"measurement": "TGI", "setting": "[20]", "result": 32.4, "unit": "µM"},
      {"measurement": "TGI", "setting": "[21]", "result": "> 100", "unit": "µM"},
      {"measurement": "TGI", "setting": "[22]", "result": 46.4, "unit": "µM"},
      {"measurement": "TGI", "setting": "[23]", "result": 31.2, "unit": "µM"},
      {"measurement": "TGI", "setting": "[24]", "result": 48.8, "unit": "µM"},
      {"measurement": "TGI", "setting": "[25]", "result": 77.2, "unit": "µM"},
      {"measurement": "TGI", "setting": "[26]", "result": "> 100", "unit": "µM"},
      {"measurement": "TGI", "setting": "[27]", "result": 37.5, "unit": "µM"},
      {"measurement": "TGI", "setting": "[28]", "result": 32.3, "unit": "µM"},
      {"measurement": "TGI", "setting": "[29]", "result": 62.8, "unit": "µM"},
      {"measurement": "TGI", "setting": "[30]", "result": 39.3, "unit": "µM"},
      {"measurement": "TGI", "setting": "[31]", "result": 70.8, "unit": "µM"},
      {"measurement": "TGI", "setting": "[32]", "result": 55.9, "unit": "µM"},
      {"measurement": "TGI", "setting": "[33]", "result": "> 100", "unit": "µM"},
      {"measurement": "TGI", "setting": "[34]", "result": "> 100", "unit": "µM"},
      {"measurement": "TGI", "setting": "[35]", "result": 69.8, "unit": "µM"},
      {"measurement": "TGI", "setting": "[36]", "result": "> 100", "unit": "µM"},
      {"measurement": "TGI", "setting": "[37]", "result": 40.7, "unit": "µM"},
      {"measurement": "TGI", "setting": "[38]", "result": 33.6, "unit": "µM"},
      {"measurement": "TGI", "setting": "[39]", "result": "> 100", "unit": "µM"},
      {"measurement": "TGI", "setting": "[40]", "result": 37.5, "unit": "µM"},
      {"measurement": "TGI", "setting": "[41]", "result": 80.1, "unit": "µM"},
      {"measurement": "TGI", "setting": "[42]", "result": 50.1, "unit": "µM"},
      {"measurement": "TGI", "setting": "[43]", "result": "> 100", "unit": "µM"},
      {"measurement": "TGI", "setting": "[44]", "result": 68, "unit": "µM"},
      {"measurement": "TGI", "setting": "[45]", "result": 55.5, "unit": "µM"},
      {"measurement": "TGI", "setting": "[46]", "result": 28.1, "unit": "µM"},
      {"measurement": "TGI", "setting": "[47]", "result": "> 100", "unit": "µM"},
      {"measurement": "TGI", "setting": "[48]", "result": 57, "unit": "µM"},
      {"measurement": "TGI", "setting": "[49]", "result": "> 100", "unit": "µM"},
      {"measurement": "TGI", "setting": "[50]", "result": 60.6, "unit": "µM"},
      {"measurement": "TGI", "setting": "[51]", "result": 32.7, "unit": "µM"},
      {"measurement": "TGI", "setting": "[52]", "result": 55.2, "unit": "µM"},
      {"measurement": "TGI", "setting": "[53]", "result": 40.2, "unit": "µM"},
      {"measurement": "TGI", "setting": "[54]", "result": 27, "unit": "µM"},
      {"measurement": "TGI", "setting": "[55]", "result": 39.4, "unit": "µM"}
    ]}
  ]
}
